Assay results from patent US20210246122A1, “Triazine Compounds and Uses Thereof” (Aduro Biotech, Inc., priority 2018, published 2021).

Legend:
[1] = biological target: T1, Human cGAS amino acids 155-522 (Homo sapiens, UniProt Q8N884); test: cGAS activity assay (DNA-activated cGAS, remaining ATP measured by Kinase-Glo Max luciferase assay); type: biochemical; details: 300 nM purified cGAS, 1 μM dsDNA, 250 μM ATP, 100 μM GTP, 37° C. for 1.25 hours
T1 construct: hexahistidine tag (N, cleaved yes); made in house; host or cells: E. coli BL21 DE3 Rosetta 2
T1 sequence (Q8N884 157-522): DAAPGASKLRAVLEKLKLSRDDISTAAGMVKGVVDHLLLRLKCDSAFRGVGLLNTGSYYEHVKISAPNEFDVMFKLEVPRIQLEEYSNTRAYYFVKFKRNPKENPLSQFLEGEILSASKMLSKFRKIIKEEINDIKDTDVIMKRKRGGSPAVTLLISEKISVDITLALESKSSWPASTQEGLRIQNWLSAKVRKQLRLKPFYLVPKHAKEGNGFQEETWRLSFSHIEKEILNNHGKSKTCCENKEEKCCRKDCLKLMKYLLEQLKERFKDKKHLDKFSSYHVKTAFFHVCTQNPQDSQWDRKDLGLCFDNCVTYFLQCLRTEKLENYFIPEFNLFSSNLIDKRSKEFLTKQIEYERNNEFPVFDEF
How it was run: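 Recombinant human cGAS 155-522 (300 nM) activated by 1 μM annealed dsDNA, run at 37° C for 1.25 h in Tris pH 9 buffer with 250 μM ATP and 100 μM GTP, 5% final DMSO. Compounds from 1 μM in 3- or 4-fold dilutions; remaining ATP read by luciferase luminescence, normalized to no-compound wells.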

cGAS/STING pathway = test: THP1 cell-based cGAS/STING pathway activity assay (luciferase reporter linked to IRF-3 activation); details: Homo sapiens, THP-1; THP1 cells, IRF-3 linked luciferase reporter
Method: A cellular assay can be used to assess the compounds of the invention for their ability to inhibit the cGAS/STING pathway. Cells that express a luciferase-based reporter that is linked to IRF-3 activation are used to determine response as a function of compound concentration. Such an assay is described in Vincent et al., Nature Communications 2017, 8(1):750, doi: 10.1038/s41467-017-00833-9. Compounds of the invention were assessed using similar assay methods in a THP1 cell assay to generate IC50 values as provided in the following Table 8. In this table, activity level “A” indicates an IC50 value less than 20 μM, “B” indicates an IC50 value between 20 and 100 μM, and “C” indicates an IC50 value above the upper limit of the assay (100 μM), or where an IC50 value could not be generated from the data.

Compound: COCCOCCOC(=O)[C@H](Cc1ccc(C#N)cc1)Nc1nc(NCc2nc3cc(F)ccc3[nH]2)nc(Nc2cccc(CN3CCN(C(=O)c4nccnc4O)CC3)c2)n1 [TA1070, 2-(2-methoxyethoxy)ethyl (S)-3-(4-cyanophenyl)-2-((4-(((5-fluoro-1H-benzo[d]imidazol-2-yl)methyl)amino)-6-((3-((4-(3-hydroxypyrazine-2-carbonyl)piperazin-1-yl)methyl)phenyl)amino)-1,3,5-triazin-2-yl)amino)propanoate]
- IC50 [1]: < 20 µM
- IC50 (cGAS/STING pathway): > 100 µM

Compound: N#Cc1ccc(C[C@H](Nc2nc(NCc3nc4cc(F)ccc4[nH]3)nc(Nc3cccc(CN4CCN(C(=O)c5nccnc5O)CC4)c3)n2)C(=O)O)cc1 [TA1071, (S)-3-(4-cyanophenyl)-2-((4-(((5-fluoro-1H-benzo[d]imidazol-2-yl)methyl)amino)-6-((3-((4-(3-hydroxypyrazine-2-carbonyl)piperazin-1-yl)methyl)phenyl)amino)-1,3,5-triazin-2-yl)amino)propanoic acid]
- IC50 [1]: < 20 µM
- IC50 (cGAS/STING pathway): > 100 µM
